“Also recorded” adds a separate entry of the source. Where two headings read alike, the source gives them in different places.
What was measured:
mice = assay: Morphine-induced constipation (colonic motility); assay type: in vivo, mouse
Source text: FIG. 8. Morphine-induced constipation and reversal by 5-HTP in mice.

Water solubility = assay type: physicochemical; details: free base
animals = assay: Colonic motility, prucalopride vs 5-HTP; assay type: in vivo; details: in animals
Source text: FIG. 9. Colonic motility. Effect of prucalopride vs 5-HTP.

[1] = tested on: isolated colon of WT and R439H mice; assay: Colonic migrating motor complexes (CMMC) measured in vitro; set-up: species or system mouse
Experimental: The entire colon (5-6 cm) was removed and mounted to allow spontaneous motor patterns to be video-imaged for the construction of spatiotemporal maps (Roberts et al, 2008; Roberts et al, 2007). The isolated colon was incubated in Krebs' solution until endogenous fecal pellets were expelled. The empty colon was cannulated at both ends, mounted in a horizontal organ bath, and both luminal and serosal compartments were superfused with oxygenated Krebs' solution at 35° C. The height of a reservoir connected to the oral cannula was adjusted to maintain intraluminal pressure at +2 cm HO. The anal cannula provided a maximum of 2 cm of back-pressure. The contractile activity was imaged with a Logitech Quickcam pro camera positioned 7-8 cm above the gut. Preparations were equilibrated for 30 min and four 15 min videos were captured. Spatiotemporal maps of the diameter at each point along the proximo-distal length of colon were constructed and used to quantify the frequency of CMMCs as well as the velocity and length of their propagation (Margolis et al, 2016b; Welch et al, 2014). CMMCs were defined as constrictions of the diameter of the bowel that propagated for at least 50% of the length of the preparations. For studies utilizing IR 5-HTP, a dose response curve was conducted whereby the isolated colons were exposed to concentrations of 5-HTP ranging from 1 to 10 μM, both intraluminally and extraluminally.

WT and R439H mice [2] = assay: Total gastrointestinal transit time (oral carmine red); assay type: in vivo, mouse; details: 30 mg/kg intraperitoneal
Experimental: Carmine red (300 μl; 6%; Sigma-Aldrich) suspended in 0.5% methylcellulose, which cannot be absorbed, was administered by gavage to study total GI transit time. Total GI transit time was considered as the interval between gavage and the appearance of carmine red in stool (Kimball et al, 2005).

WT and R439H mice [3] = assay: Colonic propulsion (glass bead expulsion time); assay type: in vivo, mouse
Experimental: Mice were anesthetized with isoflurane (Baxter Pharmaceutical Products) and a glass bead (3 mm in diameter) was pushed with a fire-polished glass rod through the anus into the colon to a distance of 2 cm from the anal verge (Li et al, 2006). The time required for the mice to expel the bead was determined and used to estimate in vivo colorectal propulsion.

[4] = Human 5-HTP gastrointestinal regional absorption study (plasma 5-HTP); assay type: in vivo; details: for bioavailability: read-out: Absolute bioavailability F; for Cmax: read-out: Maximal average 5-HTP plasma (CMax) levels
Experimental: Determination of absolute and regional intestinal bioavailability of 5-HTP in humans.
The free base form of 5-HTP was used (5-HTP has a water solubility of >10 mg/mL).
Colonic: 5-HTP free base saline solution 200 mg.
Intravenous: 5-HTP free base saline solution 50 mg.
Oral/Upper GI: Two 5-HTP gelatin tablets of 100 mg 5-HTP free base (200 mg total dose).
Healthy male and female volunteers aged 18 to 65 years with a body mass index (BMI) of 19 to 28 were eligible for the study. Subjects were admitted to the investigational medical unit (IMU) 2 h before 5-HTP administration and remained at the IMU for 24 h following, for blood sampling and safety assessment.
All subjects (n=12) received 5-HTP mg on 3 occasions. (1) Intra-colonic 200 mg 5-HTP solution by colonoscopy. (2) Intravenous 50 mg (IV). (3) Upper GI (oral) 5-HTP 200 mg. At least 6 days passed between each visit.
Plasma samples were collected over 24-hours after 5-HTP administration. Plasma samples were stored at −80° C. until analysis. 5-HTP and the metabolite 5-hydroxyindole-acetic-acid (5-HIAA) were quantified by liquid chromatography with mass-spectrometry detection.
The PK data were analyzed using noncompartmental (NCA) and compartmental (mixed effects) mathematical modelling approaches, to calculate area 5-HTP plasma under the curve (AUC) for each subject for each 5-HTP administration.
From FIG. 10, the area under the curve (AUC) for each route of administration was obtained, which was then used to calculate the absolute bioavailability (F) of the oral and colon routes of administration. For example, the formula for calculating F for a drug administered by the oral route (po) is given below (D is dose): […]

[5] = one rodent study; cited from earlier work
[6] = after administration of exogenous 5-HTP; cited from earlier work
R439H mice = details: cited from earlier work

For `CN1CC[C@]23c4c5ccc(O)c4O[C@H]2[C@@H](O)C=C[C@H]3[C@H]1C5` [Morphine, reference compound], the Colonic motility (mice; morphine 10 mg/kg) was “induced constipation, as determined by slowed colonic motility”.

In the case of `N[C@@H](Cc1c[nH]c2ccc(O)cc12)C(=O)O` [5-HTP, 5-hydroxytryptophan], the solubility (Water solubility) is reported as > 10000 µg/mL, the “Efficacy (maximal effect) on colonic motility compared to prucalopride” value (animals) is reported as “higher efficacy” and the “Potency on colonic motility compared to prucalopride” value (animals) is reported as “higher potency; also recorded: more potent than prucalopride at lower doses”. It also gave a CMMC frequency ([1]; R439H colon, extraluminal 1 μM) of 0.78±0.18 CMMC/min, a CMMC velocity ([1]; R439H colon, extraluminal 1 μM) of 3.2±0.2 mm/s and a CMMC frequency ([1]; R439H colon, intraluminal 1 μM) of 1.02±0.10 CMMC/min. It also gave a CMMC velocity ([1]; R439H colon, intraluminal 1 μM) of 2.7±0.2 mm/s, a CMMC frequency ([1]; WT colon, extraluminal 1 μM) of 0.60±0.20 CMMC/min and a CMMC velocity ([1]; WT colon, extraluminal 1 μM) of 1.4±0.5 mm/s. For the same compound, the CMMC frequency ([1]; WT colon, intraluminal 1 μM) was 0.90±0.06 CMMC/min, the CMMC velocity ([1]; WT colon, intraluminal 1 μM) was 2.3±0.2 mm/s and the “Total in vivo GI transit time” value (WT and R439H mice [2]) was 74.9 ± 19.5 min. For the same compound, the “Colonic motility, 5-HTP by itself” value (mice; 5-HTP 30 mg/kg) was “enhanced colonic motility”, the “Effect on morphine-induced constipation (colonic motility)” value (mice; 5-HTP 30 mg/kg with morphine 10 mg/kg) was “reversed the morphine-induced constipation” and the “Time of colonic bead expulsion” value (WT and R439H mice [3]; 30 mg/kg intraperitoneal) was 7.2 ± 1.6 min. The “Time of colonic bead expulsion” value (WT and R439H mice [3]; 100 mg/kg intraperitoneal) was 5.2 ± 1.6 min, the “Absorption in upper intestine compared to colon” value [4] was 5 times and the AUC ([4]; both sexes, plasma, intravenous dosing 50 mg) was 2040 ng·h/mL. The bioavailability ([4]; both sexes, plasma, oral 200 mg (upper GI tract)) was 20%, the AUC ([4]; both sexes, plasma, oral dosing 200 mg) was 1500 ng·h/mL and the Cmax ([4]; both sexes, plasma, other: intra-colonic by colonoscopy, 200 mg, intra-colonic 200 mg) was 40 to 50 ng/mL. The AUC ([4]; both sexes, plasma, other: intra-colonic by colonoscopy, colonic dosing 200 mg) was 312 ng·h/mL, the bioavailability ([4]; both sexes, plasma, other: intra-colonic by colonoscopy, intra-colonic 200 mg) was 4% and the Relative upper GI:colon bioavailability ([4]; both sexes, plasma, other: upper GI (oral) and intra-colonic compared, 200 mg, read-out: Relative upper GI tract:colon bioavailability (RBA)) was 20%. For the same compound, the Cmax ([4]; both sexes, plasma, po, 200 mg, oral 200 mg) was 370 ng/mL, the “Maximal average 5-HTP plasma (CMax) levels” value ([4]; intra-colonic 200 mg) was 47 ng/mL and the “Absorption by the colon vs the upper intestine” value [5] was “absorbed equally well by the colon and the upper intestine”. The “5-HTP plasma levels needed to produce systemic pharmacological effects” value [6] was “over 100 ng/ml”.

For `CNCCC(Oc1ccc(C(F)(F)F)cc1)c1ccccc1` (stereo not shown) [fluoxetine], the “CNS 5-HT levels” value (R439H mice) is listed as “further decline in CNS 5-HT levels” and the Depressive behaviors (R439H mice) is listed as “worsened their depressive behaviors”.

Reference: patent publication US20210290593A1, “USE OF SUSTAINED-RELEASE 5-HYDROXYTRYPTOPHAN IN TREATING GASTROINTESTINAL DISORDERS” (Duke University, priority 2018, published 2021)
